Measured values taken from patent US20150159192A1, “STERILIZATION INDICATORS INCLUDING A NEUTRALIZER AND METHODS” (3M INNOVATIVE PROPERTIES COMPANY, priority 2010, published 2015).
Like-named read-outs stand apart in the source and are kept apart here.

Columns and labels:
[1] = tested on: Geobacillus stearothermophilus spores; experiment: Hydrogen peroxide neutralizers in BI recovery medium, spore outgrowth after STERRAD 100S cycle; assay type: cell-based; design: key to Negative Control / Positive Control: Pos*/Neg*—positive (yellow) or negative (purple) was discolored by the additive; Pos*/Neg*—positive (yellow) or negative (purple) was discolored by the additive; Neg^3—positive control did not grow
Description: This example compares the neutralization effectiveness of different additives in the biological indicators recovery medium. The additives (neutralizers) were added to the recovery media used in the 3M ATTEST 1292 Rapid Readout Biological Indicators. Catalase, L-cysteine, sodium thiosulfate, D-ethionine, S-methyl-cysteine, S-benzyl-L-cysteine, thiodiproprionic acid, potassium ferricyanide and sodium pyruvate were all purchased from Sigma-Aldrich Corporation, St. Louis, Mo. Isoascorbic acid was purchased from Alfa Aesar, Ward Hill, Mass. Methionine was purchased from Calbiochem, EMD Chemicals, Gibbstown, N.J.
3M ATTEST 1292 Biological Indicators were steam sterilized to kill the existing spore population. Two sets of 3M ATTEST 1292 BIs were evaluated, one set contained the paper spore carrier used in the commercially available indicator. In the second set, the spore carrier was replaced with fiberglass strips, commercially available as […] 230-11.0 (Crane &Co., Inc., Dalton, Mass.). The steam sterilized BIs were then exposed in a STERRAD 100S hydrogen peroxide/plasma sterilization cycle. Immediately following the hydrogen peroxide/plasma sterilization, the BIs containing media with and without additives were inoculated with less than 100 Geobacillus stearothermophilus spores recovered from a 3M ATTEST 1292 BI spore strip. The indicators were incubated at 60° C. (+/−2° C.) for 7 days and observed for growth, indicated by a color change from purple to yellow. A positive and negative control was tested for each additive. The positive controls were steam sterilized and inoculated with less than 100 spores. The negative controls were steam sterilized.

[2] = tested on: Geobacillus stearothermophilus spores; experiment: Remediation of residual hydrogen peroxide, spore recovery method with sodium thiosulfate; assay type: cell-based
[3] = additive 1 g/l, CRANEGLAS fiberglass carrier, 7 days
[4] = additive 1 g/l, paper spore carrier, 7 days
[5] = additive 1 g/l, steam sterilized and inoculated with less than 100 spores, no H2O2
[6] = additive 1 g/l, steam sterilized, not inoculated
[7] = additive 2 g/l, CRANEGLAS fiberglass carrier, 7 days
[8] = additive 2 g/l, paper spore carrier, 7 days
[9] = additive 2 g/l, steam sterilized and inoculated with less than 100 spores, no H2O2
[10] = additive 2 g/l, steam sterilized, not inoculated
[11] = additive 4 g/l, CRANEGLAS fiberglass carrier, 7 days
[12] = additive 4 g/l, paper spore carrier, 7 days
[13] = additive 4 g/l, steam sterilized and inoculated with less than 100 spores, no H2O2
[14] = additive 4 g/l, steam sterilized, not inoculated
[15] = additive 8 g/l, CRANEGLAS fiberglass carrier, 7 days
[16] = additive 8 g/l, paper spore carrier, 7 days
[17] = additive 8 g/l, steam sterilized and inoculated with less than 100 spores, no H2O2
[18] = additive 8 g/l, steam sterilized, not inoculated

Molecule | No. Pos. CRANEGLAS [1, 3] | No. Pos. Paper [1, 4] | Positive Control [1, 5] | Negative Control [1, 6] | No. Pos. CRANEGLAS [1, 7] | No. Pos. Paper [1, 8] | Positive Control [1, 9] | Negative Control [1, 10] | No. Pos. CRANEGLAS [1, 11] | No. Pos. Paper [1, 12] | Positive Control [1, 13] | Negative Control [1, 14] | No. Pos. CRANEGLAS [1, 15] | No. Pos. Paper [1, 16] | Positive Control [1, 17] | Negative Control [1, 18] | also measured
CCSCC[C@@H](N)C(=O)O [D-ethionine] | 4 | 2 | Pos | Neg | 4 | 0 | Pos | Neg | 4 | 2 | Pos | Neg | 4 | 3 | Pos | Neg | 
O=C1O[C@H]([C@H](O)CO)C(O)=C1O [Isoascorbic acid] | 0 | 3 | Pos | Neg | 4 | 3 | Pos | Neg* | 4 | 3 | Pos* | Neg* | 4 | 3 | Pos* | Neg* | Additive level that effectively neutralized the paper carriers ([1]; paper carriers): 1 gram per liter
N[C@@H](CS)C(=O)O [L-cysteine] | 4 | 1 | Pos | Neg | 4 | 0 | Pos | Neg | 4 | 3 | Pos | Neg | 4 | 3 | Pos | Neg | 
CSCC[C@H](N)C(=O)O [Methionine] | 4 | 0 | Pos | Neg | 4 | 0 | Pos | Neg | 4 | 3 | Pos | Neg | 4 | 3 | Pos | Neg | 
N[C@@H](CSCc1ccccc1)C(=O)O [S-benzyl-L-cysteine] | 4 | 0 | Pos | Neg | 4 | 0 | Pos | Neg | 4 | 0 | Pos | Neg |  |  |  |  | 
CSC[C@H](N)C(=O)O [S-methyl-cysteine] | 4 | 0 | Pos | Neg | 4 | 0 | Pos | Neg | 4 | 2 | Pos | Neg | 4 | 3 | Pos* | Neg | 
CC(=O)C(=O)[O-].[Na+] [Sodium pyruvate, sodium pyruvate] |  | 0 | Pos | Neg |  | 2 | Pos | Neg |  | 3 | Pos | Neg |  | 3 | Pos | Neg | 
O=S([O-])([O-])=S.[Na+].[Na+] [Sodium thiosulfate, sodium thiosulfate] |  |  |  |  |  |  |  |  |  |  |  |  |  |  |  |  | Spore recovery ability (in words) [2]: good spore recovery agent; Additive level that effectively neutralized the paper carriers [1]: 1 gram per liter; Negative Control [1]: Neg and Neg*; No. Pos. CRANEGLAS [1]: 4; No. Pos. Paper [1]: 3; Positive Control [1]: Pos
O=C(O)CCSCCC(=O)O [Thiodiproprionic acid, thiodiproprionic acid] | 1 | 0 | Pos | Neg | 3 | 0 | Neg^3 | Neg | 3 | 0 | Neg^3 | Neg | 3 | 3 | Pos | Neg | 
Catalase (protein, UniProt P00432 2-527, looked up, enzyme neutralizer from Sigma-Aldrich, 226 units added per vial) Catalase: ADNRDPASDQMKHWKEQRAAQKPDVLTTGGGNPVGDKLNSLTVGPRGPLLVQDVVFTDEMAHFDRERIPERVVHAKGAGAFGYFEVTHDITRYSKAKVFEHIGKRTPIAVRFSTVAGESGSADTVRDPRGFAVKFYTEDGNWDLVGNNTPIFFIRDALLFPSFIHSQKRNPQTHLKDPDMVWDFWSLRPESLHQVSFLFSDRGIPDGHRHMNGYGSHTFKLVNANGEAVYCKFHYKTDQGIKNLSVEDAARLAHEDPDYGLRDLFNAIATGNYPSWTLYIQVMTFSEAEIFPFNPFDLTKVWPHGDYPLIPVGKLVLNRNPVNYFAEVEQLAFDPSNMPPGIEPSPDKMLQGRLFAYPDTHRHRLGPNYLQIPVNCPYRARVANYQRDGPMCMMDNQGGAPNYYPNSFSAPEHQPSALEHRTHFSGDVQRFNSANDDNVTQVRTFYLKVLNEEQRKRLCENIAGHLKDAQLFIQKKAVKNFSDVHPEYGSRIQALLDKYNEEKPKNAVHTYVQHGSHLSAREKANL |  |  |  |  |  |  |  |  |  |  |  |  |  |  |  |  | Neutralization of residual hydrogen peroxide (in words) [1]: sufficiently neutralized; No. Pos. CRANEGLAS ([1]; 226 units added per vial, CRANEGLAS fiberglass carrier, 7 days): 4; No. Pos. Paper ([1]; 226 units added per vial, paper spore carrier, 7 days): 3; Positive Control ([1]; 226 units added per vial, steam sterilized and inoculated): Pos; Negative Control ([1]; 226 units added per vial, steam sterilized, not inoculated): Neg
